# Reference: publication PMC10821019, “F16 Hybrids Derived from Steviol or Isosteviol Are Accumulated in the Mitochondria of Tumor Cells and Overcome Drug Resistance” (Molecules, 2024)
# “And” between values parts separate entries of the source, which are not always exact repeats. Equal entries are not always repeated.
# How the values were obtained:
# MCF7 (breast carcinoma) = assay: SRB cytotoxicity assay, MCF7; type: cell-based, human; details: mean n = 3, SD 5-10%
# Excerpt: (§1) All compounds were screened for their cytotoxic activity and tumor cell selectivity using our standard model, previously described, comprising a selection of human tumor cell lines representing different solid tumor entities and non-malignant human fibroblasts (CCD18Co) including the cell line pair A2780/A2780cis, a well-known model of acquired drug resistance.
# (§2) Reagents were bought from commercial suppliers and used without further purification. The solvents were dried according to the usual procedures. TLC was performed on silica gel (Macherey-Nagel, detection with UV absorption; Macherey-Nagel, Düren, Germany). […] Numbering in the NMR spectra: 1–20 (diterpene core), 21–24 for O-(CH2)n-N fragment followed by the pyridinium ring, the ethenyl moiety and the indole moiety. […] IR spectra were recorded on a Perkin-Elmer Spectrum Two (UATR Two Unit, Perkin-Elmer GmbH, Rodgau, Germany). […] Both media were supplemented with 10% fetal bovine serum (Biowest, Nuaillé, France) and 1% penicillin-streptomycin (Sigma-Aldrich).
# (§3) Cytotoxic activities of compounds were analyzed using the SRB cytotoxicity assay. Cells were seeded in 96-well plates and after 24 h were treated with serial dilutions of compounds for 72 h. All subsequent steps were performed according to the previously described SRB assay protocol. Dose–response curves and calculation of IC50 values, including standard deviations, were carried out using GraphPad Prism8.
# [1] = tested on: A2780cis (resistant derivative of A2780); assay: SRB cytotoxicity assay, A2780cis; type: cell-based, human; details: for IC50: SRB assay, 72 h treatment, mean n = 3, SD 5-10%; for resistance index (RI): quotient IC50 values A2780cis/A2780; for drug resistance in the A2780/A2780cis model, in words: A2780cis vs A2780
# Excerpt: as §1, §2, §3
# [2] = SRB cytotoxicity assay, CCD18Co; type: cell-based, human; details: human, CCD18Co non-malignant fibroblasts, 72 h treatment, mean n = 3, SD 5-10%
# Excerpt: as §1, §2, §3
# A549 (lung carcinoma) = assay: SRB cytotoxicity assay, A549; type: cell-based, human; details: for selectivity index 2 (SI 2): CCD18Co/A549; for IC50: SRB assay, 72 h treatment, mean n = 3, SD 5-10%
# Excerpt: as §1, §2, §3
# [3] = tested on: HT29 (colorectal carcinoma); assay: SRB cytotoxicity assay, HT29; type: cell-based, human; details: mean n = 3, SD 5-10%
# Excerpt: as §1, §2, §3
# [4] = tested on: A2780 (ovarian carcinoma); assay: SRB cytotoxicity assay, A2780; type: cell-based, human; details: for selectivity index 1 (SI 1): CCD18Co/A2780; for IC50: SRB assay, 72 h treatment, mean n = 3, SD 5-10%; for tumor cell selectivity, in words: tumor cells vs non-malignant fibroblasts CCD18Co
# Excerpt: as §1, §2, §3
# A549 cells = assay: Subcellular localization, live cell fluorescence imaging with AHCS2 and Hoechst 33342; type: cell-based, human; details: 24 h, 10 µM of 5 or 1 µM of 17 or 25, together with 20 nM AHCS2, Hoechst 33342
# Excerpt: Next, the subcellular accumulation of compounds 17 and 25 compared to 5 (F16 group) was studied, employing the fluorescent characteristics mediated by the F16 group. Expecting a mitochondrial accumulation of the compounds, our previously described strong mitochondria-targeted and NIR fluorescent agent/mitocan AHCS2 (compound 21 in ref. [4]) was used, thus enabling simultaneous analysis and direct comparison due to different fluorescence spectra.
# Analysis of subcellular localization of compounds was performed in A549 cells using the established mitochondrial targeting compound AHCS2 [4] for direct comparison. For all procedures, RPMI 1640 media without phenol-red (Pan-Biotech GmbH, Aidenbach, Germany) was used. Cells were seeded in a µ-Plate 96-well black plate (ibiTreat: #1.5 polymer coverslip bottom, ibidi GmbH, Gräfelfing, Germany) at a cell density of 30.000 per well. After 24 h, cells were treated with 10 µM of compound 5 or 1 µM of compound 17 or 1 µM of compound 25, each together with 20 nM of compound AHCS2. After 24 h, Hoechst 33342 (Sigma-Aldrich) was added and live cell imaging was performed on an Axio Observer 7 (Carl Zeiss Microscopy Deutschland GmbH, Oberkochen, Germany) using the settings for Ex/Em, as follows: Hoechst 33342 (385 nm/425 nm), F16 compounds (475 nm/514 nm), AHCS2 (735 nm/785 nm). For simultaneous analysis, multiple Z-stacked images were taken and resulting pictures were reconstructed using the ZEN 3.5 pro software (Zeiss).
# [5] = tested on: CCD18Co (non-malignant human fibroblasts); assay: SRB cytotoxicity assay, CCD18Co; type: cell-based; details: 72 h treatment, mean n = 3, SD 5-10%
# Excerpt: as §1, §2, §3
# [6] = Homo sapiens, MCF7, 72 h treatment
# [7] = Homo sapiens, HT-29, 72 h treatment
melting point,Compound,IC50 (MCF7 (breast carcinoma); [6]),"IC50 ([1]; Homo sapiens, A2780cis)",resistance index (RI) [1],IC50 at 72 h [2],selectivity index 2 (SI 2) (A549 (lung carcinoma)),"IC50 (A549 (lung carcinoma); Homo sapiens, A549)","IC50 [3, 7]",selectivity index 1 (SI 1) [4],"IC50 ([4]; Homo sapiens, A2780)",subcellular accumulation (A549 cells),IC50 (MCF7 (breast carcinoma); 72 h treatment),"drug resistance in the A2780/A2780cis model, in words [1]",IC50 [1],IC50 [5],IC50 (A549 (lung carcinoma)),IC50 ([3]; 72 h treatment),IC50 [4],"tumor cell selectivity, in words [4]",resistance index (RI) ([1]; listed as doxorubicin)
185 to 187 °C,"C(=C\c1c[nH]c2ccccc12)/c1ccccn1 [Compound 3, 3-[(E)-2-Pyridin-2-yl-ethenyl]-1H-indole]",1120 nM,39200 nM,32.88,87400 nM,3.33,26300 nM,28700 nM,73.27,1190 nM,–,–,–,–,–,–,–,–,–,–
–,"C(=C\c1c[nH]c2ccccc12)/c1cccnc1 [Compound 4, 3-[(E)-2-Pyridin-3-yl-ethenyl]-1H-indole]",5180 nM,21000 nM,17.97,90300 nM,5.50,16400 nM,7830 nM,77.40,1170 nM,–,–,–,–,–,–,–,–,–,–
254 to 255 °C,"C(=C\c1c[nH]c2ccccc12)/c1ccncc1 [Compound 5, 3-[(E)-2-Pyridin-4-yl-ethenyl]-1H-indole]",10900 nM,16400 nM,7.26,100000 nM,6.49,15400 nM,16500 nM,44.21,2260 nM,preferential mitochondrial localization,–,–,–,–,–,–,–,–,–
–,"CC12CCC3C(CCC4C(C)(C(=O)OCCC[n+]5ccc(C=Cc6c[nH]c7ccccc67)cc5)CCCC34C)(CC1=O)C2.[Br-] (stereo not drawn) [Compound 17, 3-{4-[(E)-2-(1H-Indol-3-yl)ethenyl]-pyridinium-1-yl}-propyl (4α, 8β, 13β) 13-Methyl-16-oxo-17-norkauran-18-oate Bromide]",–,–,1.07,–,5.88,–,–,71.25,–,preferential mitochondrial localization,590 nM,able to reduce or even overcome drug resistance,300 nM,19900 nM,3390 nM,760 nM,280 nM,retained selectivity,–
–,"CC12CCC3C(CCC4C(C)(C(=O)OCCCC[n+]5ccc(C=Cc6c[nH]c7ccccc67)cc5)CCCC34C)(CC1=O)C2.[Br-] (stereo not drawn) [Compound 25, 4-{4[(E)-2-(1H-Indol-3-yl)ethenyl]-pyridinium-1-yl}butyl (4α, 8β, 13β) 13-Methyl-16-oxo-17-norkauran-18-oate Bromide]",–,–,1.70,–,4.14,–,–,59 and 59.32,–,preferential mitochondrial localization,490 nM,able to reduce or even overcome drug resistance,310 nM,10800 nM,2620 nM,880 nM,180 nM,retained selectivity,–
–,"CC12CCC3C(CCC4C(C)(C(=O)OCCCC[n+]5cccc(C=Cc6c[nH]c7ccccc67)c5)CCCC34C)(CC1=O)C2.[Br-] (stereo not drawn) [Compound 27, 4-{3-[(E)-2-(1H-Indol-3-yl)ethenyl]-pyridinium-1-yl}butyl (4α, 8β, 13β) 13-Methyl-16-oxo-17-norkauran-18-oate Bromide]",–,–,1.67,–,1.72,–,–,14.18,–,–,1570 nM,–,1270 nM,10800 nM,6280 nM,2200 nM,760 nM,–,–
–,C=C1C[C@@]23CC[C@H]4[C@@](C)(CCC[C@@]4(C)C(=O)OCCCC[n+]4ccccc4/C=C/c4c[nH]c5ccccc45)[C@@H]2CC[C@]1(O)C3.[Br-] [Compound 28],–,–,3.33,–,1.46,–,–,21.75,–,–,1180 nM,–,1680 nM,10900 nM,7510 nM,1780 nM,500 nM,–,–
–,"CC12CCC3C(CCC4C(C)(C(=O)OCCCC[n+]5ccccc5C=Cc5c[nH]c6ccccc56)CCCC34C)(CC1=O)C2.[Br-] (stereo not drawn) [Compound 29, 4-{2-[(E)-2-(1H-Indol-3-yl)ethenyl]pyridinium-1-yl}-butyl (4α, 8β, 13β) 13-Methyl-16-oxo-17-norkauran-18-oate Bromide]",–,–,3.05,–,1.88,–,–,17.61,–,–,2050 nM,–,3220 nM,18600 nM,9860 nM,3810 nM,1060 nM,–,–
–,"COc1cccc2c1C(=O)c1c(O)c3c(c(O)c1C2=O)C[C@@](O)(C(=O)CO)C[C@@H]3O[C@H]1C[C@H](N)[C@H](O)[C@H](C)O1 [DOX, doxorubicin, reference compound]",83 nM,109 nM,14.7,242 nM,13.9,17 nM,98 nM,32.7,7 nM,–,–,–,–,–,–,–,–,–,approximately 14
